From patent publication US20120301895A1, “METHODS OF MODULATING BINDING OF SON OF SEVENLESS TO PHOSPHATIDIC ACID AND IDENTIFYING COMPOUNDS THAT MODULATE SUCH BINDING” (THE RESEARCH FOUNDATION OF STATE UNIVERSITY OF NEW YORK, priority 2007, published 2012)

Tested on: T24 cells
Assay: Cell viability and PARP cleavage in T24 cells
Assay type: cell-based, human
Conditions: honokiol 20 μM, 0.5% serum
Procedure: In FIG. 17A, T24 and Calu1 cells (obtained from the American Type Culture Collection) were plated in DMEM containing 10% serum for 48 hr and then shifted to either 10% serum or 0.5% serum overnight as indicated. Honokiol (20 μM) or control ethanol was then added for 4 hr as indicated. [^3H]-Myristate was added with the honokiol. After 4 hr, BtOH (0.7%) was added for 20 min, at which time the cells were harvested and the level of phosphatidyl-BtOH (P-Bt) was determined as in FIGS. 12A-C. The experiments shown are representative of at least two independent experiments. In FIG. 17B, T24 and Calu-1 cells were plated in DMEM with 10% serum for 48 hr then changed to DMEM containing either 10% or 0.5% serum overnight as indicated. Honokiol (20 μM) or control ethanol was then added either at the time of changing media (24 hr), or 4 hr before harvesting as in FIGS. 14A-E, at which time the cells were examined for cell viability or PARD cleavage. […]
Cell viability was determined by trypan blue exclusion. […] After 10 min, trypan blue uptake (dead cells) was determined by counting on a hemocytometer. Apoptosis was evaluated by examination of cleavage of the caspase 3 substrate PARP as described previously (Chen et al., “Alternative Phospholipase D/mTOR Survival Signal in Human Breast Cancer Cells,” Oncogene 24:672-9 (2005), which is hereby incorporated by reference in its entirety). […]

## C=CCc1ccc(O)c(-c2ccc(O)c(CC=C)c2)c1 [honokiol, Honokiol]
  PARP cleavage: induced
  cell death: induced
